From ChEMBL document CHEMBL4482324, “Ash1l inhibitors and methods of treatment therewith” (2017)

Target: Histone-lysine N-methyltransferase ASH1L (Homo sapiens, UniProt Q9NR48)
Test: Inhibition of MOCR-fused ASH1L SET-BAH ( 2069 to 2833 amino acids) (unknown origin) expressed as in Escherichia coli BL21 (DE3) T1R cells using SAM and chicken mono/dinucleosomes incubated for 1 hr by scintillation counting assay

NC(=S)c1cccc(-c2cn(CCC(F)F)c3cc(CO)cc(F)c23)c1
IC50: < 20 µM

NC(=S)c1cccc(-c2ccc(O)c3[nH]ccc23)c1
IC50: 20 to 100 µM

NC(=S)c1cc(-c2cn(CC(CF)CF)c3cc(CO)ccc23)ccn1
IC50: < 20 µM

NC(=O)c1cc(-c2cn(CCC(F)F)c3cc(CO)ccc23)ccc1N
IC50: < 20 µM

NC(=O)c1cccc(-c2cn(CCC(F)F)c3cc(CO)ccc23)c1
IC50: < 20 µM

NC(=S)c1cc(-c2c[nH]c3ccccc23)ccc1N
IC50: > 100 µM

Cc1c(CO)ccc2c(-c3cccc(C(N)=S)c3)cn(CCCC(F)(F)F)c12
IC50: < 20 µM

COc1cc(C(N)=S)cc(-c2cn(CCCC(F)(F)F)c3cc(N)ccc23)c1
IC50: 20 to 100 µM

CC(O)c1ccc2c(-c3cccc(C(N)=S)c3)cn(CC(CF)CF)c2c1 (stereo not drawn)
IC50: < 20 µM

N#Cc1cccc(-c2cn(CC(CO)C(F)F)c3cc(N)ccc23)c1 (stereo not drawn)
IC50: < 20 µM

NC(=S)c1cccc(-c2cn(C3CCCCC3O)c3cc(CO)ccc23)c1 (stereo not drawn)
IC50: < 20 µM

NC(=S)c1cccc(-c2cn(CC(CF)CF)c3cc(CO)ccc23)c1
IC50: < 20 µM

NC(=S)c1cccc(-c2cn(C3CCN(S(N)(=O)=O)CC3)c3cc(N)ccc23)c1
IC50: < 20 µM

NC(=S)c1cccc(-c2cn(CC3CC(F)C(F)C3)c3cc(CO)ccc23)c1 (stereo not drawn)
IC50: < 20 µM

NC(=S)c1cccc(-n2cc(N3CCCCC3)c3cc(CO)ccc32)c1
IC50: < 20 µM

NC(=S)c1cccc(-c2cn(CC(F)(F)F)c3cc(NCC(F)(F)F)ccc23)c1
IC50: < 20 µM

NC(=S)c1cccc(-c2cn(CCC(O)C(F)(F)F)c3cc(N)ccc23)c1 (stereo not drawn)
IC50: 20 to 100 µM

NC(=S)c1ccc(-c2ccccc2)s1
IC50: > 100 µM

NC(=S)c1cccc(-c2cn(CCC(F)(F)F)c3cc(N)ccc23)c1
IC50: < 20 µM

NC(=S)c1cc(-c2cn(CCC(F)F)c3cc(CO)ccc23)c2scnc2c1
IC50: < 20 µM

NC(=S)c1cccc(-c2cn(CCCC(F)(F)F)c3cc(CN4CCNCC4)ccc23)c1
IC50: 20 to 100 µM

NC(=S)c1cccc(-c2ccc(OCCOCCNC(=O)CCCCCNC(=O)c3ccc4c(c3)C(=O)OC43c4ccc(O)cc4Oc4cc(O)ccc43)c3[nH]ccc23)c1
IC50: > 100 µM

NC(=S)c1cccc(-c2cn(CC3OCCO3)c3cc(N)ccc23)c1
IC50: 20 to 100 µM

NC(=S)c1cccc(-c2cn(C3CCOCC3)c3cc(CNC(=O)Cc4c[nH]cn4)ccc23)c1
IC50: < 20 µM

NC(=S)c1cccc(-c2cccc3[nH]ccc23)c1
IC50: 20 to 100 µM

NC(=S)c1cc(-c2cn(CCC(F)F)c3cc(CO)ccc23)ccc1O
IC50: < 20 µM

NC(=S)c1cccc(-c2ccc(CCC(F)F)c3[nH]ccc23)c1
IC50: < 20 µM

CC(O)COC(C)Cn1cc(-c2cccc(C(N)=S)c2)c2ccccc21 (stereo not drawn)
IC50: 20 to 100 µM

NC(=S)c1cc(-c2cn(CCC(F)F)c3cc(CO)ccc23)c2cc[nH]c2c1
IC50: < 20 µM

NC(=S)c1cccc(-c2ccc(OCCOCCNC(=O)c3ccc(-c4c5ccc(=O)cc-5oc5cc(O)ccc45)c(C(=O)O)c3)c3[nH]ccc23)c1
IC50: > 100 µM

NC(=S)c1cccc(-c2cn(CCC(F)F)c3cc(N4CCOCC4)ccc23)c1
IC50: < 20 µM

NC(=S)c1cccc(-c2cn(Cc3cn[nH]c3)c3cc(N)ccc23)c1
IC50: 20 to 100 µM

NC(=S)c1cccc(-c2ccc(O)c3c2CCC3O)c1 (stereo not drawn)
IC50: > 100 µM

Cc1c(O)ccc(-c2cncc(C(N)=S)c2)c1C
IC50: > 100 µM

NC(=S)c1cccc(-c2ccccc2O)c1
IC50: > 100 µM

NC(=S)c1cccc(-c2cn(CCCC(F)(F)F)c3cc(CNCc4cccnc4)ccc23)c1
IC50: < 20 µM

NC(=S)c1cc(-c2cn(CC(CF)CF)c3cc(CO)ccc23)ccc1O
IC50: < 20 µM

CS(=O)(=O)N1CCC(n2cc(-c3cccc(C(N)=S)c3)c3ccc(CNC(=O)C4CNC4)cc32)CC1
IC50: < 20 µM

NC(=S)c1cccc(-c2cn(CCCC(F)(F)F)c3cc(CNC(=O)c4ccccc4)ccc23)c1
IC50: < 20 µM

NC(=S)c1cccc(-c2cn(CCC(F)F)c3cc(NC(=O)CC4CC4)ccc23)c1
IC50: < 20 µM

NC(=S)c1cccc(-c2cn(CCCC(F)(F)F)c3cc(N)ccc23)n1
IC50: < 20 µM

NC(=S)c1cccc(-c2cn(CC(CF)CF)c3cc(NCCc4c[nH]cn4)ccc23)c1
IC50: < 20 µM

CS(=O)(=O)N1CCC(n2cc(-c3cccc(C(N)=S)c3)c3ccc(CNc4nnc(N)s4)cc32)CC1
IC50: < 20 µM

NC(=S)c1cccc(-c2c[nH]c3c(CO)cccc23)c1
IC50: 20 to 100 µM

NC(=S)c1cccc(-c2cn(CCC(F)F)c3cc(CNC(=O)C(F)(F)F)ccc23)c1
IC50: < 20 µM

NC(=S)c1cccc(-c2cn(CCCC(F)(F)F)c3cc(CNCc4cn[nH]n4)ccc23)c1
IC50: < 20 µM

NC(=S)c1cccc(-c2cn(CCCC(F)(F)F)c3cc(CN4CCOCC4)ccc23)c1
IC50: 20 to 100 µM

NC(=S)c1cccc(-n2cc(C3CCCCC3O)c3cc(CO)ccc32)c1 (stereo not drawn)
IC50: < 20 µM

NC(=S)c1cccc(-c2ccc(CCC(F)F)c3[nH]c(CO)cc23)c1
IC50: < 20 µM

NC(=S)c1cccc(-c2cccc3nc(N)sc23)c1
IC50: 20 to 100 µM

NC(=S)c1cccc(-c2cn(C3CCNCC3)c3cc(N)ccc23)c1
IC50: < 20 µM

NC(=S)c1cccc(-c2cc(C(F)(F)F)cc3[nH]ccc23)c1
IC50: 20 to 100 µM

Cc1[nH]c2ccccc2c1-c1cccc(C(N)=S)c1
IC50: > 100 µM

NC(=S)c1cccc(-c2cn(C3CCOCC3)c3cc(SCCO)ccc23)c1
IC50: < 20 µM

CS(=O)(=O)N1CCC(n2cc(-c3cccc(C(N)=S)c3)c3ccc(Nc4nccs4)cc32)CC1
IC50: < 20 µM

CS(=O)(=O)N1C2CCC1CC(n1cc(-c3cccc(C(N)=S)c3)c3ccc(N)cc31)C2 (stereo not drawn)
IC50: < 20 µM

NC(=S)c1cccc(-c2cn(CC(CO)(C(F)F)C(F)F)c3cc(C(O)CCF)ccc23)c1 (stereo not drawn)
IC50: < 20 µM

NC(=S)c1cccc(-c2ccc(CCC(F)F)c3[nH]cnc23)c1
IC50: < 20 µM

NC(=S)c1cccc(-c2cn(CC(CF)CF)c3cc(NC(CO)CO)ccc23)c1
IC50: < 20 µM

NC(=S)c1cccc(-c2cc(CC(CF)CF)c3cc[nH]c3c2)c1
IC50: < 20 µM

NC(=S)c1cccc(-c2cn(CC3C(F)(F)COCC3(F)F)c3cc(CO)ccc23)c1
IC50: < 20 µM

Cn1cc(-c2cccc(C(N)=S)c2)c2ccccc21
IC50: 20 to 100 µM

NC(=S)c1ccsc1
IC50: > 100 µM

NC(=S)c1cccc(-c2cccc3c2ccn3CCO)c1
IC50: > 100 µM

NC(=S)c1cccc(-n2cc(CC(CF)CF)c3cc(CO)ccc32)c1
IC50: < 20 µM

NCc1cccc2c(-c3cccc(C(N)=S)c3)c[nH]c12
IC50: 20 to 100 µM

NC(=S)c1cccc(-c2cn(CC(C(F)F)C(F)F)c3cc(N)ccc23)c1
IC50: < 20 µM

NC(=S)c1cccc(-c2cn(CC(C(F)F)C(F)F)c3cc(C(O)CCF)ccc23)c1 (stereo not drawn)
IC50: < 20 µM

NC(=S)c1cc(-c2cn(CCC(F)F)c3cc(CO)ccc23)c2[nH]cnc2c1
IC50: < 20 µM

NC(=S)c1cccc(-c2cn(CC(CF)CF)c3cc(NC(=O)c4ncc[nH]4)ccc23)c1
IC50: < 20 µM

NC(=S)c1cc(-c2ccc(O)cc2)ccn1
IC50: > 100 µM

NC(=S)c1cccc(-c2cc(CCC(F)F)c3[nH]ccc3c2)c1
IC50: < 20 µM

NC(=S)c1cccs1
IC50: > 100 µM

NCc1ccc2c(-c3cccc(C(N)=S)c3)cn(CCO)c2c1
IC50: 13 µM

CCCS(=O)(=O)N1CCC(n2cc(-c3cccc(C(N)=S)c3)c3ccc(CNc4c[nH]c(C)n4)cc32)CC1
IC50: < 20 µM

NC(=S)c1cccc(-c2cn(CC(C(F)F)C(F)F)c3cc(CO)ccc23)c1
IC50: < 20 µM

NC(=S)c1cc(O)cc(-c2cccc3[nH]ccc23)c1
IC50: > 100 µM

NC(=S)c1cccc(-c2cn(CC(CF)CF)c3cc(CO)ccc23)n1
IC50: < 20 µM
